Experimental data taken from US8957093B2, “N-biphenylmethylindole modulators of PPARG” (The Scripps Research Institute, priority 2011, dated 2015).
Like-named read-outs stand apart in the source and are kept apart here.

Legend:
[1] = molecular target: Gal-4-PPAR (human PPAR LBD fused to GAL4 DNA-binding domain) (Homo sapiens (Human), UniProt P37231); test: GAL4-PPARG LBD / UAS-luciferase transactivation assay in HEK 293T cells; type: cell-based
[2] = molecular target: GST-PPARG-LBD (Homo sapiens (Human), UniProt P37231); test: Lanthascreen PPARG competitive binding assay (Invitrogen, TR-FRET); settings: NA = not active, inc = incomplete curve; for IC50: read-out: IC50 (nM) Lantha
Chain of GST-PPARG-LBD (P37231 238-503): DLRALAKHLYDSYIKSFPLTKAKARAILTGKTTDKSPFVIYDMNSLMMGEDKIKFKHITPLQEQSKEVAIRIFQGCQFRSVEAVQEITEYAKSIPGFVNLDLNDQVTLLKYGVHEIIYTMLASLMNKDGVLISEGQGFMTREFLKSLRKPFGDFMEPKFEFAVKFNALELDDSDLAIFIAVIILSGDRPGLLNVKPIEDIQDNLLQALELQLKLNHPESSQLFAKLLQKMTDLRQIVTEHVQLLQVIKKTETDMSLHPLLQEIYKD
Procedure: Lanthascreen PPARG Competitive Binding Assay (Invitrogen)
The assay was performed according to manufacturer protocol. A mixture of […], 5 nM Tb-GST-antibody, 5 nM Fluormone Pan-PPAR Green, and serial dilutions of the experimental compound, beginning at 10 μM downwards, was added to wells of black 384-well low-volume plates (Greiner) to a total volume of 18 μL. All dilutions were made in TR-FRET assay buffer C. DMSO at 2% final concentration was used as a no-ligand control. Experiment was performed in triplicate, and incubated for 2 hours in the dark prior to assay read in Perkin Elmer ViewLux ultra HTS microplate reader. FRET signal was measured by excitation at 340 nm and emission at 520 nm for fluorescein and 490 nm for terbium. Fold change over DMSO was calculated using GraphPad Prism Software (La Jolla, Calif.) by calculating 520 nm/490 nm ratio. Graphs were plotted as fold change of FRET signal for compound treatment over DMSO-only control.

[3] = GAL4 transactivation, HEK 293T cells; NA = not active; read-out: EC50 (nM) GAL4
[4] = Lanthascreen competitive binding
[5] = HEK-293T, 18 h; read-out: % transactivation at 10 μM (GAL4)
[6] = Lanthascreen PPARG competitive binding

Chain of Gal-4-PPAR (human PPAR LBD fused to GAL4 DNA-binding domain) (P37231 238-503): as above

Row | SMILES | IC50 [2, 4] [nM] | also measured
1 | Cc1c(C)n(Cc2ccc(-c3ccccc3C(=O)O)cc2)c2ccc(C(=O)N[C@@H](C)c3cccc(C(F)(F)F)c3Cl)cc12 [Example 230, (S)-4′-((5-((1-(2-Chloro-3-(trifluoromethyl)phenyl)ethyl)carbamoyl)-2,3-dimethyl-1H-indol-1-yl)methyl)-[1,1′-biphenyl]-2-carboxylic acid] | 103 | EC50 [1, 3]: 709 nM; activation at 10 µM ([1]; HEK-293T, 18 h, read-out: % transactivation at 10 μM (GAL4)): 20%
2 | Cc1c(C)n(Cc2ccc(-c3ccccc3C(=O)O)cc2)c2ccc(C(=O)N[C@@H](C)c3ccnc(Br)c3)cc12 [Example 267, (S)-4′-((5-(1-(2-bromopyridin-4-yl)ethylcarbamoyl)-2,3-dimethyl-1H-indol-1-yl)methyl)biphenyl-2-carboxylic acid] | 98 | EC50 [1, 3]: 2490 nM; activation at 10 µM [1, 5]: 40%
3 | Cc1c(C)n(Cc2ccc(-c3ccccc3C(=O)O)cc2)c2ccc(C(=O)N[C@H](C)c3ccc(C4CC4)nc3)cc12 [Example 264, (R)-4′-((5-((1-(6-cyclopropylpyridin-3-yl)ethyl)carbamoyl)-2,3-dimethyl-1H-indol-1-yl)methyl)-[1,1′-biphenyl]-2-carboxylic acid] | 32 | EC50 [1, 3]: 1990 nM; activation at 10 µM [1, 5]: 35%
4 | C[C@H](NC(=O)c1ccc2c(ccn2Cc2ccc(-c3ccccc3CO)cc2)c1)c1ccc([N+](=O)[O-])cc1 [Example 54, (S)-1-((2′-(Hydroxymethyl)-[1,1′-biphenyl]-4-yl)methyl)-N-(1-(4-nitrophenyl)ethyl)-1H-indole-5-carboxamide] | > 1000 | 
5 | Cc1c(C)n(Cc2ccc(-c3ccccc3C#N)cc2)c2ccc(C(=O)N[C@@H](C)c3ccc(Cl)c(Cl)c3)cc12 [Example 290, (S)-1-((2′-cyano-[1,1′-biphenyl]-4-yl)methyl)-N-(1-(3,4-dichlorophenyl)ethyl)-2,3-dimethyl-1H-indole-5-carboxamide] |  | IC50 (nM) Lantha [2, 6]: inc
6 | Cc1c(C)n(Cc2ccc(-c3ccccc3C(=O)NC3CC3)cc2)c2ccc(C(=O)N[C@@H](C)c3cccc(C(C)C)c3)cc12 [Example 305, (S)-1-((2′-(Cyclopropylcarbamoyl)-[1,1′-biphenyl]-4-yl)methyl)-N-(1-(3-isopropylphenyl)ethyl)-2,3-dimethyl-1H-indole-5-carboxamide] |  | IC50 [2, 6]: 94 nM
7 | C[C@H](NC(=O)c1ccc2c(ccn2Cc2ccc(-c3cccc(CN)c3)cc2)c1)c1ccc([N+](=O)[O-])cc1 [Example 53, (S)-1-((3′-(Aminomethyl)-[1,1′-biphenyl]-4-yl)methyl)-N-(1-(4-nitrophenyl)ethyl)-1H-indole-5-carboxamide] | > 1000 | 
8 | Cc1c(C)n(Cc2ccc(-c3ccccc3C#N)cc2)c2ccc(C(=O)N[C@@H](C)c3cccc(F)c3)cc12 [Example 293, (S)-1-((2′-cyano-[1,1′-biphenyl]-4-yl)methyl)-N-(1-(3-fluorophenyl)ethyl)-2,3-dimethyl-1H-indole-5-carboxamide] |  | IC50 (nM) Lantha [2, 6]: inc
9 | COc1ccc(CNC(=O)c2ccc3c(c2)c(C)c(C)n3Cc2ccc(-c3ccccc3C(=O)O)cc2)cc1 [Example 104, 4′-((5-(4-methoxybenzylcarbamoyl)-2,3-dimethyl-1H-indol-1-yl)methyl)biphenyl-2-carboxylic acid] | 7 | 
10 | C[C@H](NC(=O)c1ccc2c(ccn2Cc2ccc(-c3ccccc3C(=O)O)cc2)c1)c1ccc([N+](=O)[O-])cc1 [Example 61, (S)-4′-((5-((1-(4-Nitrophenyl)ethyl)carbamoyl)-1H-indol-1-yl)methyl)-[1,1′-biphenyl]-2-carboxylic acid] | 646 | 
11 | C[C@H](NC(=O)c1ccc2c(ccn2Cc2ccc(-c3cccc(Cl)c3)cc2)c1)c1ccc([N+](=O)[O-])cc1 [Example 58, (S)-1-((3′-Chloro-[1,1′-biphenyl]-4-yl)methyl)-N-(1-(4-nitrophenyl)ethyl)-1H-indole-5-carboxamide] | > 1000 | 
12 | Cc1c(C)n(Cc2ccc(-c3ccccc3S(N)(=O)=O)cc2)c2ccc(C(=O)N[C@@H](C)c3cccc(C(C)C)c3)cc12 [Example 247, (S)—N-(1-(3-isopropylphenyl)ethyl)-2,3-dimethyl-1-((2′-sulfamoyl-[1,1′-biphenyl]-4-yl)methyl)-1H-indole-5-carboxamide] | > 1000 | 
13 | Cc1ccc(-c2ccc(Cn3ccc4cc(C(=O)N[C@@H](C)c5ccc([N+](=O)[O-])cc5)ccc43)cc2)cc1 [Example 57, (S)-1-((4′-Methyl-[1,1′-biphenyl]-4-yl)methyl)-N-(1-(4-nitrophenyl)ethyl)-1H-indole-5-carboxamide] | > 1000 | 
14 | Cc1c(C)n(Cc2ccc(-c3ccccc3C#N)cc2)c2ccc(C(=O)N[C@@H](C)c3ccc(C(C)(C)C)cc3)cc12 [Example 184, (S)—N-(1-(4-(tert-butyl)phenyl)ethyl)-1-((2′-cyano-[1,1′-biphenyl]-4-yl)methyl)-2,3-dimethyl-1H-indole-5-carboxamide] |  | IC50 (nM) Lantha [2, 4]: ^2inc^
15 | Cc1c(C)n(Cc2ccc(-c3ccccc3C(=O)O)cc2)c2ccc(C(=O)N[C@H](C)c3c(F)cncc3F)cc12 [Example 215, (R)-4′-((5-((1-(3,5-difluoropyridin-4-yl)ethyl)carbamoyl)-2,3-dimethyl-1H-indol-1-yl)methyl)-[1,1′-biphenyl]-2-carboxylic acid] | 309 | 
16 | Cc1c(C)n(Cc2ccc(-c3ccccc3C(=O)O)cc2)c2ccc(C(=O)N[C@@H](C)c3ccc(N)cc3)cc12 [Example 99, (S)-4′-((5-(1-(4-aminophenyl)ethylcarbamoyl)-2,3-dimethyl-1H-indol-1-yl)methyl)biphenyl-2-carboxylic acid] | 240 | 
17 | Cc1c(C)n(Cc2ccc(-c3ccccc3C#N)cc2)c2ccc(C(=O)N[C@@H](C)c3cccc(C(C)(C)C)c3)cc12 [Example 185, (S)—N-(1-(3-(tert-butyl)phenyl)ethyl)-1-((2′-cyano-[1,1′-biphenyl]-4-yl)methyl)-2,3-dimethyl-1H-indole-5-carboxamide] |  | IC50 (nM) Lantha [2, 4]: inc
18 | Cc1c(C)n(Cc2ccc(-c3ccccc3C(=O)O)cc2)c2ccc(C(=O)N(C)Cc3ccccc3)cc12 [compound 3, 4′-((5-(Benzyl(methyl)carbamoyl)-2,3-dimethyl-1H-indol-1-yl)methyl)biphenyl-2-carboxylic acid] | 206 | 
19 | Cc1c(C)n(Cc2ccc(-c3ccccc3C(=O)O)cc2)c2ccc(C(=O)NCc3cccc4ccccc34)cc12 [Example 115, 4′-((2,3-dimethyl-5-(naphthalen-1-ylmethylcarbamoyl)-1H-indol-1-yl)methyl)biphenyl-2-carboxylic acid] | 64 | 
20 | Cc1cn(Cc2ccc(-c3ccccc3C(=O)O)cc2)c2ccc(C(=O)N[C@@H](C)c3ccc(Br)cc3)cc12 [Example 132, (S)-4′-((5-((1-(4-Bromophenyl)ethyl)carbamoyl)-3-methyl-1H-indol-1-yl)methyl)-[1,1′-biphenyl]-2-carboxylic acid] | 24 | 
21 | C[C@H](NC(=O)c1ccc2c(ccn2Cc2ccc(-c3ccccc3O)cc2)c1)c1ccc([N+](=O)[O-])cc1 [Example 40, (S)-1-((2′-Hydroxy-[1,1′-biphenyl]-4-yl)methyl)-N-(1-(4-nitrophenyl)ethyl)-1H-indole-5-carboxamide] | > 1000 | 
22 | Cc1c(C)n(Cc2ccc(-c3ccccc3C(=O)O)cc2)c2ccc(C(=O)N[C@@H](C)c3ccc4ccccc4c3)cc12 [compound 26, (S)-4′-((2,3-Dimethyl-5-((1-(naphthalen-2-yl)ethyl)carbamoyl)-1H-indol-1-yl)methyl)-[1,1′-biphenyl]-2-carboxylic acid] | > 1000 | 
23 | Cc1c(C)n(Cc2ccc(-c3ccccc3C(=O)NCCN(C)C)cc2)c2ccc(C(=O)N[C@@H](C)c3cccc(C(C)C)c3)cc12 [Example 310, (S)-1-((2′-((2-(Dimethylamino)ethyl)carbamoyl)-[1,1′-biphenyl]-4-yl)methyl)-N-(1-(3-isopropylphenyl)ethyl)-2,3-dimethyl-1H-indole-5-carboxamide] |  | IC50 [2, 6]: > 1000 nM
24 | Cc1ccc([C@H](C)NC(=O)c2ccc3c(c2)c(C)c(C)n3Cc2ccc(-c3ccccc3C#N)cc2)cc1 [Example 288, (S)-1-((2′-cyano-[1,1′-biphenyl]-4-yl)methyl)-2,3-dimethyl-N-(1-(p-tolyl)ethyl)-1H-indole-5-carboxamide] |  | IC50 (nM) Lantha [2, 6]: inc
25 | C[C@H](NC(=O)c1ccc2c(ccn2Cc2ccc(-c3ccccc3)cc2)c1)c1ccc([N+](=O)[O-])cc1 [Example 38, (S)-1-([1,1′-Biphenyl]-4-ylmethyl)-N-(1-(4-nitrophenyl)ethyl)-1H-indole-5-carboxamide] | > 1000 | 
26 | Cc1c(C)n(Cc2ccc(-c3ccccc3C(=O)O)cc2)c2ccc(C(=O)NCC(=O)c3ccccc3)cc12 [compound 31, 4′-((2,3-Dimethyl-5-((2-oxo-2-phenylethyl)carbamoyl)-1H-indol-1-yl)methyl)-[1,1′-biphenyl]-2-carboxylic acid] | 244 | 
